Active and inactive are the calls of the source.
Experiments:
[1] = target: T1, Calpain-2 catalytic subunit (Sus scrofa, UniProt P43367); experiment: pig calpain II inhibitor potency, dose response, biochemical, fluorogenic peptide substrate (AID 1420); type: functional
T1 sequence (P43367 whole entry): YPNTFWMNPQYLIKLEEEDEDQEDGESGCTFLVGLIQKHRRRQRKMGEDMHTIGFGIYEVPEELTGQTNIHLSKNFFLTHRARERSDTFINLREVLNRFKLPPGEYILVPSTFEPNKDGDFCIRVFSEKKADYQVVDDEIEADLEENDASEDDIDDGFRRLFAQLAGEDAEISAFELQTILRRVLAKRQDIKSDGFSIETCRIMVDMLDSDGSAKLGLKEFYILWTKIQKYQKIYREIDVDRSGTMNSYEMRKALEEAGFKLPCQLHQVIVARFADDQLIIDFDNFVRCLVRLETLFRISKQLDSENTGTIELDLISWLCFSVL

[2] = test system: Escherichia coli; experiment: microbe, parasite or virus in culture
[3] = test system: Escherichia coli; experiment: microbe, parasite or virus in culture; remark: listed apart in the source
[4] = target: Delta-type opioid receptor (Homo sapiens, UniProt P41143); experiment: Counterscreen for agonists of heterodimerization of the mu 1 (OPRM1) and delta 1 (OPRD1) opioid receptors: Luminescence-based cell-based high throughput dose response assay to identify agonists of OPRD1 homodimerization. [Related pubchem assays (depositor defined):AID504326, AID504355, AID504692, AID504904, AID504905]; type: functional
Delta-type opioid receptor, sequence (P41143 whole entry): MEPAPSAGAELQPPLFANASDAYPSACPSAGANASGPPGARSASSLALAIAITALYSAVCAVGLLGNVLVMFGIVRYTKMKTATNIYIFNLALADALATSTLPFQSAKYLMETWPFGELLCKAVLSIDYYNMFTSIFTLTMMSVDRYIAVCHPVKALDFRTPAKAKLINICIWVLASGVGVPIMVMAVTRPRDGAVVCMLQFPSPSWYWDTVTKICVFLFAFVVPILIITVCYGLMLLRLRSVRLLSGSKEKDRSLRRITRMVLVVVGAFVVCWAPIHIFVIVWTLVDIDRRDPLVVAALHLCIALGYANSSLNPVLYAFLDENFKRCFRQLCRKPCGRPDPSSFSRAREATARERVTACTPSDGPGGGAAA

[5] = target: Mu-type opioid receptor (Homo sapiens, UniProt P35372); experiment: Counterscreen for agonists of heterodimerization of the mu 1 (OPRM1) and delta 1 (OPRD1) opioid receptors: Luminescence-based cell-based high throughput dose response assay to identify agonists of OPRM1 homodimerization.; type: functional;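 also: U2OS cells expressing OPRM1 and beta-arrestin as split beta-galactosidase partners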
[6] = target: 5-hydroxytryptamine receptor 5A (Homo sapiens, UniProt P47898); experiment: Counterscreen for agonists of OPRM1-OPRD1 heterodimerization: luminescence-based cell-based high throughput dose response assay to identify agonists of 5-hydroxytryptamine (serotonin) 5A receptor (HTR5A). [Related pubchem assays (depositor defined):AID504326, AID504355, AID504692, AID504904, AID504905]; type: functional
5-hydroxytryptamine receptor 5A, sequence (P47898 whole entry, the tested form may be a part): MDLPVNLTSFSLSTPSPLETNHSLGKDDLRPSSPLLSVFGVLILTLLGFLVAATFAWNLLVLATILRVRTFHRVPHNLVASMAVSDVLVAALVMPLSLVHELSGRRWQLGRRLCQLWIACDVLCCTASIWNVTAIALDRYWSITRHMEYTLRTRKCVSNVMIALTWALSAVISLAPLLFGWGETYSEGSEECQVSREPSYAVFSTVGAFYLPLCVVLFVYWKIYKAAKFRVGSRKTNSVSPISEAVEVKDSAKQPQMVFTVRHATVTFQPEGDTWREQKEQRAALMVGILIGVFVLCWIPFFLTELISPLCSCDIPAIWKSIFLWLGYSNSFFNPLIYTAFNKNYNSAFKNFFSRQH

[7] = inhibitors of HIV Env-driven cell fusion, dose response, cherry-pick (AID 652057); type: functional, cell-based
[8] = CEM21 lymphoblast cell cytotoxicity, dose response, cytotoxicity control for viral fusion inhibitor project, CellTiter-Glo luminescence, cherry-picked (AID 652042); type: functional, cell-based;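 also: potency for signal decrease meaning cytotoxicity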
[9] = target: Paired box protein Pax-8 (Homo sapiens, UniProt Q06710); experiment: inhibitors of PAX8-driven TPO luciferase reporter, dose response, RMG-I cells, cherry-pick (AID 687027); type: functional, cell-based;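 also: luciferase reporter driven by Pax8 target thyroperoxidase promoter measured by SteadyGlo luminescence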
Paired box protein Pax-8, sequence (Q06710 whole entry): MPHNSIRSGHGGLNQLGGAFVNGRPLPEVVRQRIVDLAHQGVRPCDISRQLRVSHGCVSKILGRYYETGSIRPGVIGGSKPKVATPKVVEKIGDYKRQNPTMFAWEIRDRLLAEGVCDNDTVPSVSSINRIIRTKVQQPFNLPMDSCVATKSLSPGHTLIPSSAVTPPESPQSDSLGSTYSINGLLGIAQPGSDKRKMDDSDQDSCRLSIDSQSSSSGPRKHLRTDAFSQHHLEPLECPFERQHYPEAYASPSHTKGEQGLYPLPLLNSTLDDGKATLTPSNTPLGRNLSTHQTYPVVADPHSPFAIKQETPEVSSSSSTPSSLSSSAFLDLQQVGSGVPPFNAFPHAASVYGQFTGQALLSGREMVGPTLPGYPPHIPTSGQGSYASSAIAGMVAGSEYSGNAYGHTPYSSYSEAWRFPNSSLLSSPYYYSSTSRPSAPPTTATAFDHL

[10] = target: Cytochrome P450 2D6 (Homo sapiens, UniProt P10635);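 also: CYP2D6 member of a cytochrome P450 panel assay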
Cytochrome P450 2D6, sequence (P10635 whole entry): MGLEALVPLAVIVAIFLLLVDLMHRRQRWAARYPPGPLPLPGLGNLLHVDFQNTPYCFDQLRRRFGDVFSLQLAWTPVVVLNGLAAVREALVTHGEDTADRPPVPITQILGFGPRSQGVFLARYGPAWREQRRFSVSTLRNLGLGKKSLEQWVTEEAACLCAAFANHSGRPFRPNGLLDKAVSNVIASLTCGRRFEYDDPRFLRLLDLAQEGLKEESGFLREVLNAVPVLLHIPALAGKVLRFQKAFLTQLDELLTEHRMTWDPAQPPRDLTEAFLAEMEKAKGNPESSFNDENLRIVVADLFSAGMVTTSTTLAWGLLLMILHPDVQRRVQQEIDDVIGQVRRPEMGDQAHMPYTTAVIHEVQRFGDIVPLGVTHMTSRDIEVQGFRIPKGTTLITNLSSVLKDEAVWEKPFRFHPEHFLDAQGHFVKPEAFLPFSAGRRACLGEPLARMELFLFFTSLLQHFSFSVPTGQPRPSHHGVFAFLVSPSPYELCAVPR

[11] = target: Voltage-gated inwardly rectifying potassium channel KCNH2 (Homo sapiens, UniProt Q12809); conditions: Potency;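 also: confirmatory quantitative high-throughput screen measuring inhibition of hERG channel activity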
Voltage-gated inwardly rectifying potassium channel KCNH2, sequence (Q12809 whole entry): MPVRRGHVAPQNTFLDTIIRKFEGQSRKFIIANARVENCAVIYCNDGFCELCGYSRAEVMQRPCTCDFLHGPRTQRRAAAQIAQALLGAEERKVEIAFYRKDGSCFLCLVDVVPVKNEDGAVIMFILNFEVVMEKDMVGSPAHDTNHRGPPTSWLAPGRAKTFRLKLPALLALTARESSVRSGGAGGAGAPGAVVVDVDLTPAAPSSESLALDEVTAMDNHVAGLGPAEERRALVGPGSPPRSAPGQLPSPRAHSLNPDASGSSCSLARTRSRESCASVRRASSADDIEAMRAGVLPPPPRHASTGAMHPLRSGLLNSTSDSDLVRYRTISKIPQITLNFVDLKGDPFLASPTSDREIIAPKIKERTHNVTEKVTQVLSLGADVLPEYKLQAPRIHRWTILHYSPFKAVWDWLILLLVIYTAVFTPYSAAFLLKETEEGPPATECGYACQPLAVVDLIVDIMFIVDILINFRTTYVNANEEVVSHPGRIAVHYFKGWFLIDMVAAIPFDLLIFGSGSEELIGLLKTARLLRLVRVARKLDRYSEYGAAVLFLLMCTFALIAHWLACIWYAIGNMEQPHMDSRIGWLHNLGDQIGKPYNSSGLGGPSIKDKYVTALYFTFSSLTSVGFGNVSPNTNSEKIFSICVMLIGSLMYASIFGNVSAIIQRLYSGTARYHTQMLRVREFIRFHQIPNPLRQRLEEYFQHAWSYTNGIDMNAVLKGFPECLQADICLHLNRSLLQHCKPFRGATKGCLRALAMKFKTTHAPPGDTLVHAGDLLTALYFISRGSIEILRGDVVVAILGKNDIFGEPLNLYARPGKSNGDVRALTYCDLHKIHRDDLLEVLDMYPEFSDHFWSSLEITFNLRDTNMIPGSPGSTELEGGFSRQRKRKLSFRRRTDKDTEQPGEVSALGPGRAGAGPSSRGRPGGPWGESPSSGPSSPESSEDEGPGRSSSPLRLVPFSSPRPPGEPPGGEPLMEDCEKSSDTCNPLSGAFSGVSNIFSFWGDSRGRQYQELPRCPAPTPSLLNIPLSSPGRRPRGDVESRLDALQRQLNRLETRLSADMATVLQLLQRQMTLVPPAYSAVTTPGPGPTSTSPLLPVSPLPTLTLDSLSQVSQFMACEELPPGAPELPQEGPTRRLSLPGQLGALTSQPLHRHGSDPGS

[12] = HEp-2 cell cytotoxicity, dose response, cytotoxicity control for RSV inhibitor project, HTS (AID 2410); type: functional; conditions: human respiratory syncytial virus
[13] = target: Dual specificity protein kinase CLK1 (Homo sapiens, UniProt P49759); experiment: CLK1 kinase inhibitors, off-target check, dose response, selectivity assay for Dyrk1A inhibitor project, biochemical, cherry-picked samples (AID 588811)
[14] = target: Dual specificity tyrosine-phosphorylation-regulated kinase 1A (Rattus norvegicus, UniProt Q63470); type: biochemical, Homo sapiens
[15] = target: NS3 (Hepatitis C virus, UniProt A3EZJ3); experiment: PubChem AID 2173; parameters: species or system Hepacivirus hominis
NS3, sequence (A3EZJ3 whole entry): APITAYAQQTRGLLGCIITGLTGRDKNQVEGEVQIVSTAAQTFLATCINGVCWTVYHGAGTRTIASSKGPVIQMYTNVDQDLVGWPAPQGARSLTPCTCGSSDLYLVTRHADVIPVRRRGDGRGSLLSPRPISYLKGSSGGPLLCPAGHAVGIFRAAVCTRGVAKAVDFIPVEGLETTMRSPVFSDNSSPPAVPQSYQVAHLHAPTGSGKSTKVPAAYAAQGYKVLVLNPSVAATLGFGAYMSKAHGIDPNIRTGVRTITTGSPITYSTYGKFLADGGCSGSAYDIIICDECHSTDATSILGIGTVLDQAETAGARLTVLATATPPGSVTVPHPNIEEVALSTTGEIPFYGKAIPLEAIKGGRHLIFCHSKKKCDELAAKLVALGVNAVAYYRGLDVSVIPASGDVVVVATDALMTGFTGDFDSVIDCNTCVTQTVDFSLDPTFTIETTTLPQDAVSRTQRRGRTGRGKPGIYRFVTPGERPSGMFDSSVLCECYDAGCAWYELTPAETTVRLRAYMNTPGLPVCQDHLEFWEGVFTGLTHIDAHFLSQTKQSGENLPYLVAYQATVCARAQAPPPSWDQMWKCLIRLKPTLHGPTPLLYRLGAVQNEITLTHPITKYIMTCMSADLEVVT

[16] = target: T2, DNA topoisomerase (Yersinia pestis, UniProt A0A2S9PM60); experiment: Y. pestis Topo-I inhibitors, cleavage product readout, dose response, biochemical, cherry-pick (AID 588525)
T2 sequence (A0A2S9PM60 whole entry): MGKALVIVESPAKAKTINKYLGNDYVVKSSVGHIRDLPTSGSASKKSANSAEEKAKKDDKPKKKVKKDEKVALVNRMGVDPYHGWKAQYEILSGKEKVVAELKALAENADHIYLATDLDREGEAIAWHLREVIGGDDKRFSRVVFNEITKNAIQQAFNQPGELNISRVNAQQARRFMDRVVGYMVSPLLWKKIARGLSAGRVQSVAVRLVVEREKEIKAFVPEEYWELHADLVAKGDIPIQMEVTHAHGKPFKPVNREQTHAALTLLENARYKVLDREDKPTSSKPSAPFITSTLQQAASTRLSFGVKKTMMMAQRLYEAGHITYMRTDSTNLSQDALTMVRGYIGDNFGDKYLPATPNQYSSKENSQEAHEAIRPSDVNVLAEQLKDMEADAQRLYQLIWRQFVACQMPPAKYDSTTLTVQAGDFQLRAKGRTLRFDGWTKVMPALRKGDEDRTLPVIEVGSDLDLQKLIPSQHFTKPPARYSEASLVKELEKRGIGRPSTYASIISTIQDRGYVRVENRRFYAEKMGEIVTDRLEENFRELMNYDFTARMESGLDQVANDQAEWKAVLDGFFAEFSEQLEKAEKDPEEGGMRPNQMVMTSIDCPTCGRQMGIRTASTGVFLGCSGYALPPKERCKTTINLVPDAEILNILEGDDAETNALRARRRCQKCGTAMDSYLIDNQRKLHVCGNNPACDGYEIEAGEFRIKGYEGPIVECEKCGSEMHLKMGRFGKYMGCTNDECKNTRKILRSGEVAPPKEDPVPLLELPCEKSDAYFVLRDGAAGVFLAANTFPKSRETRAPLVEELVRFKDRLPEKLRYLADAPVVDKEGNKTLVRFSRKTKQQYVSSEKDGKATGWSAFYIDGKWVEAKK

[17] = test system: Vero; experiment: Vero cell cytotoxicity, cytotoxicity control for flavivirus capping enzyme inhibitors (AID 588742); type: functional; conditions: Chlorocebus sabaeus
[18] = Late-stage probe development counterscreen for inhibitors of the Hepatitis C Virus non-structural protein 3 helicase (NS3): luminescence-based cell-based dose response assay to determine whether compounds that inhibit replication of HCV RNA replicon are cytotoxic. [Related pubchem assays (depositor defined):AID1800, AID1830, AID1845, AID1943, AID1945, AID2172, AID2173, AID2474, AID2476]; type: functional
[19] = target: Genome polyprotein (dengue virus type 2, UniProt P29990); experiment: Dengue-2 NS5 methyltransferase inhibitors, primary screen, biochemical, confirmation dose response (AID 588689); type: functional
Genome polyprotein, sequence (P29990 2492-3391 limits assumed): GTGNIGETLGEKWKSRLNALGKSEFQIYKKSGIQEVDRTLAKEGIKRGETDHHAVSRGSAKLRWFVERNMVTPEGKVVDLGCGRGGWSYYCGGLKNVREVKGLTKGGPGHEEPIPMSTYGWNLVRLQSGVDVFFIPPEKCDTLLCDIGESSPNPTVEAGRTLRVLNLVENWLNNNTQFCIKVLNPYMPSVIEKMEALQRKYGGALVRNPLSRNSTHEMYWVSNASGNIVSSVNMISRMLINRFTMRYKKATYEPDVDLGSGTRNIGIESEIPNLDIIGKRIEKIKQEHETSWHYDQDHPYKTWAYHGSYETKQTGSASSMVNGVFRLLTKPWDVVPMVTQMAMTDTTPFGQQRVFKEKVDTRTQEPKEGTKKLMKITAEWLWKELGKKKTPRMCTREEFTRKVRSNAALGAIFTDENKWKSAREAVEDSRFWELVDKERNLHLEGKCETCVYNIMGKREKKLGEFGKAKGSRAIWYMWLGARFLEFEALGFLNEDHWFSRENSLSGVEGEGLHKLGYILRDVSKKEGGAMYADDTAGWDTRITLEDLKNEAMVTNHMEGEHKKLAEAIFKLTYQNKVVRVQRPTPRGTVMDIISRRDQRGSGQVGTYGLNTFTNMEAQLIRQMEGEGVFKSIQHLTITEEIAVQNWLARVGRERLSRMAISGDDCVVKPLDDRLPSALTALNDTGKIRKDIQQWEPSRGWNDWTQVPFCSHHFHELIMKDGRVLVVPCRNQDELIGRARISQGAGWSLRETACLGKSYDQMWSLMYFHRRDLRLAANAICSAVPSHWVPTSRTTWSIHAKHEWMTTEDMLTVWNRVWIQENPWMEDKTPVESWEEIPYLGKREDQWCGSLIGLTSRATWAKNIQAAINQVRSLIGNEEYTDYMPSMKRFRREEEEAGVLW

[20] = target: T3, Low molecular weight phosphotyrosine protein phosphatase (Homo sapiens, UniProt P24666); type: functional; conditions: read-out: IC50_Mean
T3 sequence (P24666 whole entry): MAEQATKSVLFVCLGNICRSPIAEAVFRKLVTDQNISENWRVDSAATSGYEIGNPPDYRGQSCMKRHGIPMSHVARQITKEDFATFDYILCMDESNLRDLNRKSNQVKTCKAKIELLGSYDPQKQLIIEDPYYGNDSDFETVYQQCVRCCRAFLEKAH

[21] = target: T3, Low molecular weight phosphotyrosine protein phosphatase; type: functional; conditions: read-out: IC50_Mean; remark: listed apart in the source
[22] = test system: HEK293; experiment: cytotoxicity in HEK293T NF-kB-Luc cells, SAR follow-up, cytotoxicity control for NF-kB activator project, cell-based, resazurin fluorescence (AID 493251); type: functional; conditions: Homo sapiens
[23] = test system: Jurkat; experiment: SAR Analysis of small molecule inhibitors of T-cell specific antigen receptor-induced NF-kB activation in a Jurkat cell line using a luminescence assay - Set 2. [Related pubchem assays (depositor defined):AID435003, AID435012, AID465]; type: functional, cell-based; conditions: Homo sapiens
[24] = test system: HEK293; experiment: SAR Analysis of small molecule inhibitors of T-cell specific antigen receptor-induced NF-kB activation in a HEK-293T cell line using a luminescence assay - Set 2. [Related pubchem assays (depositor defined):AID435003, AID435012, AID489026]; type: functional, cell-based; conditions: Homo sapiens
[25] = target: Glycogen synthase kinase-3 alpha (Homo sapiens, UniProt P49840); experiment: Inhibition of Human GSK-3 alpha Activity Measured in Biochemical System Using Microfluidics - 2063-06_Inhibitor_Dose_DryPowder_Activity. [Related pubchem assays (depositor defined):AID2709]
[26] = target: Glycogen synthase kinase-3 beta (Homo sapiens, UniProt P49841); experiment: Inhibition of Human GSK-3 beta Activity Measured in Biochemical System Using Microfluidics - 2063-05_Inhibitor_Dose_DryPowder_Activity. [Related pubchem assays (depositor defined):AID2709]
[27] = test system: Jurkat; experiment: antigen receptor-induced NF-kB inhibitors, dose response, Jurkat, luciferase reporter, luminescence, B- and T-cell (AID 489004); type: functional, cell-based; conditions: Homo sapiens;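 also: NF-kB luciferase reporter Jurkat cells stimulated with PMA plus ionomycin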
[28] = cytotoxicity in HEK-293T NF-kB-Luc cells, dose response, cytotoxicity control for B/T-cell NF-kB inhibitor project, cell-based, uHTS hits (AID 489019); type: functional;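 also: IC50 reflects cytotoxicity as loss of cell viability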
[29] = target: T4, Microphthalmia-associated transcription factor (Homo sapiens, UniProt O75030); experiment: TRPM1 promoter luciferase signal decrease, dose response, MITF inhibitor project, cell-based, SK-MEL-5, cherry-picked, set 3 (AID 493073); type: functional
T4 sequence (O75030 whole entry): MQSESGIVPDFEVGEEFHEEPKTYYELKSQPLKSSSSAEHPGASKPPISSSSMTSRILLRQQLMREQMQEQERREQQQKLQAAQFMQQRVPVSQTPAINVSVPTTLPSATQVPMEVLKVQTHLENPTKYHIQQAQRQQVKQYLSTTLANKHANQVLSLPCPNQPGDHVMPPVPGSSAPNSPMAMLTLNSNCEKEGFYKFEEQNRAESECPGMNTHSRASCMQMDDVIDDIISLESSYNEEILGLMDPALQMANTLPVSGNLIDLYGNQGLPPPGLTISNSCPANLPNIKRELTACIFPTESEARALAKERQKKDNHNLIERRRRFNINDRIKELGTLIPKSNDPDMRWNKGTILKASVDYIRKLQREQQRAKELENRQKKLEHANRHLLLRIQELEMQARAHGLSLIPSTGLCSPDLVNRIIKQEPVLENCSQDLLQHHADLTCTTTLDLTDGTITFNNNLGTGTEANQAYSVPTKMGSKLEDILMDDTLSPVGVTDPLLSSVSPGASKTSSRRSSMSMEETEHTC

[30] = test system: A-375; experiment: MITF: Counter assay: A375 proliferation Measured in Cell-Based System Using Plate Reader - 2084-03_Inhibitor_Dose_DryPowder_Activity. [Related pubchem assays (depositor defined):AID488944]; type: functional; conditions: Homo sapiens
[31] = test system: A-375; experiment: A375 melanoma cell viability reduction, dose response, counter-screen for MITF modulator project, cherry-pick samples, set 2 (AID 540335); type: functional, cell-based; conditions: Homo sapiens
[32] = Shn3 3'UTR reporter inhibitors, dose response, cell-based, Clone20 osteoblasts, firefly luciferase, cherry-picked (AID 624132); type: functional;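 also: firefly luciferase luminescence from reporter carrying the Shn3 3'UTR in osteoblasts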
[33] = control 3'UTR Renilla luciferase suppression, dose response, counter-screen for Shn3 inhibitor project, cell-based, Clone20-Shn3RL, cherry-picked (AID 624133); type: functional
[34] = target: Photoreceptor-specific nuclear receptor (Homo sapiens, UniProt Q9Y5X4); type: functional, cell-based;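 also: CHO-S cells with Gal4-NCOR and VP16-NR2E3 two-hybrid luciferase reporter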
Photoreceptor-specific nuclear receptor, sequence (Q9Y5X4 whole entry, the tested form may be a part): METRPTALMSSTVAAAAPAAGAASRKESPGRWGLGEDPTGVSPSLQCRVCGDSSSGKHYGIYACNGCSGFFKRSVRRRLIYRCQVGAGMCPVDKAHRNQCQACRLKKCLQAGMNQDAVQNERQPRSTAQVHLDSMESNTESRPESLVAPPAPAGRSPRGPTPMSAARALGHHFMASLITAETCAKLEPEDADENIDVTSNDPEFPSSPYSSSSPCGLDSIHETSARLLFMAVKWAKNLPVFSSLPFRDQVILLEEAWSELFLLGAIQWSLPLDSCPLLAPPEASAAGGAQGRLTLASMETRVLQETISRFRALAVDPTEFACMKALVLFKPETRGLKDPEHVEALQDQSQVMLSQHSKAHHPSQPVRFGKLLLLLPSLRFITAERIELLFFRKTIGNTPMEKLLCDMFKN

[35] = test system: Candida albicans; experiment: growth inhibition of resistant C. albicans, dose response, CaCi-8 strain, fluconazole, dry powder, set 4 (AID 488950); type: functional, organism-based
[36] = test system: Candida albicans; experiment: C. albicans growth inhibition with fluconazole, dose response, antifungal resistance reversal project, CaCi-2 strain, Alamar Blue, dry powder, set 2 (AID 488930); type: functional, organism-based
[37] = test system: Candida albicans; experiment: fluconazole resistance reversal in C. albicans, dose response, CaCi-2 strain, Alamar Blue, dry powder, set 4 (AID 488943); type: functional, organism-based
[38] = test system: Candida albicans; experiment: growth inhibition of azole-resistant C. albicans, dose response, CaCi-8 strain, Alamar Blue, dry powder, set 2 (AID 488909); type: functional, organism-based

## O=C(CCC(=O)OCc1cccc(C(=O)Oc2ccccc2)c1)Nc1cccc2ccccc12
[1]
  IC50: < 400 nM (not active)
[2]
  AC50: 23.5 µM (active)
[3]
  AC50: 212 µM (active)

## CCN(c1nc(N)c(C(=O)NC(=N)N)nc1Cl)C(C)C [5-(N-ETHYL-N-ISOPROPYL)AMILORIDE]
[4]
  EC50: 64.1 µM (inactive)
[5]
  EC50: > 92.5 µM (inactive)
[6]
  EC50: 85.8 µM (inactive)
[7]
  AC50: 1.98 µM (active)
[8]
  AC50: 63.8 µM (active)
[9]
  AC50: 20.9 µM (active)
[10]
  AC50: 31.6 µM (inconclusive)
[11]
  AC50: 35.5 µM (inconclusive)

## O=c1cc(-c2ccccc2Cl)oc2c(NS(=O)(=O)c3ccccc3C(F)(F)F)ccc(O)c12
[12]
  CC50: 48.5 µM (active)
[13]
  AC50: 18.9 µM (active)
[14]
  AC50: 65.4 µM (active)

## CCCCCOc1ccc(C2C(C(=O)c3ccc(C)o3)=C(O)C(=O)N2c2cc(C)on2)cc1 (stereo not drawn)
[15]
  IC50: 2.44 µM (active)
[16]
  AC50: 6.14 µM (active)
[17]
  CC50: > 40 µM (active)
[18]
  CC50: > 100 µM (inactive)
[19]
  IC50: 31.6 µM (active)
[20]
  IC50: > 80 µM (inactive)
[21]
  IC50: 2.21 µM (active)

## CC(C)(C)NC(=O)CCc1nc(-c2ccc(C(C)(C)C)cc2)no1
[22]
  IC50: 39 µM (inactive)
[23]
  IC50: 2.77 µM (active)
[24]
  IC50: 6.68 µM (active)

## COC(=O)c1ccc(CSc2ccc3nnc(-c4ccc(OC)cc4)n3n2)o1
[25]
  AC50: 6.84 µM (active)
[26]
  AC50: 1.94 µM (active)

## C=CCn1c(C)cc(C(=O)CN2C(=O)c3ccccc3S2(=O)=O)c1C
[27]
  IC50: 1.17 µM (active)
[28]
  IC50: > 80 µM (inactive)
[29]
  AC50: 666 nM (active)
[30]
  AC50: > 35 µM (active)
[31]
  AC50: > 35 µM (active)
[32]
  AC50: 974 nM (active)
[33]
  AC50: 23.2 µM (active)
[34]
  IC50: 2.46 µM (active)

## O=C(c1ccc(Cl)nc1)N1CCN(c2ccnc3cc(Cl)ccc23)CC1
[35]
  AC50: 7.3 µM (active)
[36]
  AC50: 2.99 µM (active)
[37]
  AC50: 3.16 µM (active)
[38]
  AC50: < 195 nM (active)

From ChEMBL document CHEMBL1201862, “PubChem BioAssay data set” (2004)
